Measurements reported in paper PMC6896172, “Successful Targeting of the Warburg Effect in Prostate Cancer by Glucose-Conjugated 1,4-Naphthoquinones” (Cancers, 2019).

System: 22Rv1 cells
Experiment: Global proteome analysis (LC-MS/MS, DIA) of differentially expressed proteins
Type: cell-based, human
Experimental: 22Rv1 cells were seeded in T75 culture bottles (4 × 10^6 cells/bottle in 20 mL/bottle), treated for 48 h with the 5 µM of compound 11 or vehicle (DMSO), harvested by scratching, washed twice with ice-cold PBS and flash-frozen. Cells were lysed and sonicated. The protein extracts were then heat-denaturated, reduced, alkylated and digested by trypsin. Peptides were chromatographically separated using full recovery autosampler vials and a nano-UPLC system (Acquity, Waters Corporation, Milford, MS, USA), coupled via electrospray ionization (ESI) to a tandem mass spectrometer equipped with a quadrupole and an orbitrap (QExactive, Thermo Fisher Scientific, Bremen, Germany), using MS/MS mode in data dependent acquisition (DDA) and data independent acquisition (DIA). The peptides, analyzed with DDA-LC-MS/MS, were identified with the search engine Sequest, integrated in the Proteome Discoverer software version 2.0 (Thermo Fischer Scientific) using the human Uniprot protein database (EMBL; Hinxton Cambridge, UK, release December 2018). […] For the details of sample preparation and proceeding, data acquisition and analysis see the Supplementary information. […]
serum (FBS, Invitrogen) and 1% penicillin/streptomycin (Invitrogen)). […]
Cell lines were lysed in 100 mM triethylammonium bicarbonate and 1% w/v sodium deoxycholate buffer followed by probe sonication to destroy polynucleotides and heat induce protein denaturing at 99 °C for 5 min. Protein concentrations were estimated with a bicinchonic acid (BCA) protein assay (Thermo Fisher Scientific, Bremen, Germany). 20 µg of protein were reduced in presence of 10 mM dithiotreithol (Sigma Aldrich) for 30 min at 60 °C followed by cysteine alkylation with 20 mM iodo acetamide (Sigma Aldrich) for 30 min at 37 °C in the dark and enzymatic degradation with sequencing grade trypsin (Promega) over night at 37 °C. Digestion was quenched with 1% formic acid (FA), precipitated sodium deoxycholate removed by centrifugation for 5 min at 14,000 g and the supernatant was dried in a vacuum centrifuge.
LC-MS/MS in Data Dependent and Data Independent Mode
Samples were resuspended in 0.1% FA and transferred into a full recovery autosampler vial (Waters). Chromatographic separation was achieved on a nano -UPLC system (Acquity, Waters Corporation, Milford, MS, USA) with a two-buffer-system (buffer A: 0.1% FA in water, buffer B:
0.1% FA in Acetonitrile (ACN), both at pH = 3). Attached to the UPLC was a reversed -phase peptide trapping column (Symmetry C18, 180 µm × 20 mm, 100 Å pore size, 5 µm particle size) for desalting, followed by a reversed-phase capillary separation of the tryptic peptides (BEH C18; 75 µm × 200 mm, 130 Å pore size, 1.7 µm particle size), using a 60 min gradient with increasing ACN concentration from 2–30% ACN. The eluting peptides were analyzed on a quadrupole-orbitrap mass spectrometer (QExactive, Thermo Fisher Scientific, Bremen, Germany) in data dependent acquisition (DDA) and data independent acquisition (DIA) for quantification.
In DDA mode, one replicate of each cell line was randomly chosen and 1 µg per sample was used per LC-MS/MS run to build a reference spectral library used for data extraction of samples acquired in DIA mode. For DDA, the 12 most intense ions per precursor scan (1 × 10 6 ions, 70,000 Resolution, 120 ms fill time) were analyzed by MS/MS (HCD at 25 normalized collision energy, 1 × 105 ions, 17,500 Resolution, 50 ms fill time) in a range of 400–1300 m/z. A dynamic precursor exclusion of 20 s was used. For DIA, 1 µg of each sample was analyzed using a 30 sequential 20 Da fixed window method covering the mass range from 400 –1000 m/z. Per cycle, 2 precursor scans (1 × […]
28 normalized collision energy, 1 × 106 ions, 17,500 Resolution, 50 ms fill time) were performed.
After the first precursor scan, 15 MS/MS scans were performed covering the precursor mass range from 400–700 m/z followed by the second precursor scan and another 15 MS/MS scans ranging from […]
LC-MS/MS Data Processing and Analysis […]

With `CC1(C)OC2OC(C(O)COC3=CC(=O)c4cccc(O)c4C3=O)C(O)C2O1` (stereo not shown) [Compound 11] the “Fold change (treated / control)” value (protein ARID2_HUMAN (Q68CP9)) was 0.5698, the “Fold change (treated / control)” value (protein BAZ1B_HUMAN (Q9UIG0)) was 0.5909 and the “Fold change (treated / control)” value (protein BCAM_HUMAN (P50895)) was 0.2614. The “Fold change (treated / control)” value (protein BRD1_HUMAN (O95696)) was 0.5595, the “Fold change (treated / control)” value (protein CBX5_HUMAN (P45973)) was 0.6078 and the “Fold change (treated / control)” value (protein CCD86_HUMAN (Q9H6F5)) was 0.6454. For the same compound, the “Fold change (treated / control)” value (protein CEBPZ_HUMAN (Q03701)) was 0.6117, the “Fold change (treated / control)” value (protein CHCH5_HUMAN (Q9BSY4)) was 0.3153 and the “Fold change (treated / control)” value (protein CISD1_HUMAN (Q9NZ45)) was 0.6534. For the same compound, the “Fold change (treated / control)” value (protein CLUS_HUMAN (P10909)) was 0.6547, the “Fold change (treated / control)” value (protein CMTD1_HUMAN (Q86VU5)) was 0.6695 and the “Fold change (treated / control)” value (protein COASY_HUMAN (Q13057)) was 0.6716. For the same compound, the “Fold change (treated / control)” value (protein COQ5_HUMAN (Q5HYK3)) was 0.6569, the “Fold change (treated / control)” value (protein CPSF7_HUMAN (Q8N684)) was 0.5898 and the “Fold change (treated / control)” value (protein CRIP2_HUMAN (P52943)) was 0.5784. For the same compound, the “Fold change (treated / control)” value (protein CX6B1_HUMAN (P14854)) was 0.5635, the “Fold change (treated / control)” value (protein DDX21_HUMAN (Q9NR30)) was 0.6203 and the “Fold change (treated / control)” value (protein DDX50_HUMAN (Q9BQ39)) was 0.5638. For the same compound, the “Fold change (treated / control)” value (protein DDX52_HUMAN (Q9Y2R4)) was 0.5706, the “Fold change (treated / control)” value (protein DESP_HUMAN (P15924)) was 0.5753 and the “Fold change (treated / control)” value (protein DHX30_HUMAN (Q7L2E3)) was 0.6273. The “Fold change (treated / control)” value (protein DPOE3_HUMAN (Q9NRF9)) was 0.6062, the “Fold change (treated / control)” value (protein E2AK2_HUMAN (P19525)) was 0.6134 and the “Fold change (treated / control)” value (protein EDF1_HUMAN (O60869)) was 0.6154. For the same compound, the “Fold change (treated / control)” value (protein EFTU_HUMAN (P49411)) was 0.6185, the “Fold change (treated / control)” value (protein ELOV5_HUMAN (Q9NYP7)) was 0.5895 and the “Fold change (treated / control)” value (protein FAKD2_HUMAN (Q9NYY8)) was 0.6444. For the same compound, the “Fold change (treated / control)” value (protein FKB10_HUMAN (Q96AY3)) was 0.625, the “Fold change (treated / control)” value (protein FKBP8_HUMAN (Q14318)) was 0.6712 and the “Fold change (treated / control)” value (protein GCN1_HUMAN (Q92616)) was 0.6676. For the same compound, the “Fold change (treated / control)” value (protein GRSF1_HUMAN (Q12849)) was 0.6529, the “Fold change (treated / control)” value (protein H2AY_HUMAN (O75367)) was 0.6499 and the “Fold change (treated / control)” value (protein HSPB6_HUMAN (O14558)) was 0.6349. For the same compound, the “Fold change (treated / control)” value (protein IF4A1_HUMAN (P60842)) was 0.6202, the “Fold change (treated / control)” value (protein IMA1_HUMAN (P52292)) was 0.5682 and the “Fold change (treated / control)” value (protein IQEC2_HUMAN (Q5JU85)) was 0.6175. The “Fold change (treated / control)” value (protein K2013_HUMAN (Q8IYS2)) was 0.3342, the “Fold change (treated / control)” value (protein LRWD1_HUMAN (Q9UFC0)) was 0.5648 and the “Fold change (treated / control)” value (protein MAP2_HUMAN (P50579)) was 0.6543. The “Fold change (treated / control)” value (protein MCM3_HUMAN (P25205)) was 0.6329, the “Fold change (treated / control)” value (protein MCM4_HUMAN (P33991)) was 0.5634 and the “Fold change (treated / control)” value (protein MCM5_HUMAN (P33992)) was 0.5949. The “Fold change (treated / control)” value (protein MCM6_HUMAN (Q14566)) was 0.6119, the “Fold change (treated / control)” value (protein MCM7_HUMAN (P33993)) was 0.5855 and the “Fold change (treated / control)” value (protein MIPEP_HUMAN (Q99797)) was 0.6023. The “Fold change (treated / control)” value (protein MTA1_HUMAN (Q13330)) was 0.5631, the “Fold change (treated / control)” value (protein MTA2_HUMAN (O94776)) was 0.5939 and the “Fold change (treated / control)” value (protein MYOME_HUMAN (Q5VU43)) was 0.6576. The “Fold change (treated / control)” value (protein NDUA3_HUMAN (O95167)) was 0.3195, the “Fold change (treated / control)” value (protein NDUAC_HUMAN (Q9UI09)) was 0.6076 and the “Fold change (treated / control)” value (protein NDUV1_HUMAN (P49821)) was 0.6332. For the same compound, the “Fold change (treated / control)” value (protein NUDC_HUMAN (Q9Y266)) was 0.6476, the “Fold change (treated / control)” value (protein P4HTM_HUMAN (Q9NXG6)) was 0.3114 and the “Fold change (treated / control)” value (protein PCNA_HUMAN (P12004)) was 0.6578. For the same compound, the “Fold change (treated / control)” value (protein PDS5A_HUMAN (Q29RF7)) was 0.5949, the “Fold change (treated / control)” value (protein PTMA_HUMAN (P06454)) was 0.5745 and the “Fold change (treated / control)” value (protein RFC2_HUMAN (P35250)) was 0.5826. For the same compound, the “Fold change (treated / control)” value (protein RFC3_HUMAN (P40938)) was 0.567, the “Fold change (treated / control)” value (protein RFC4_HUMAN (P35249)) was 0.5722 and the “Fold change (treated / control)” value (protein RFC5_HUMAN (P40937)) was 0.6148. For the same compound, the “Fold change (treated / control)” value (protein RL1D1_HUMAN (O76021)) was 0.6228, the “Fold change (treated / control)” value (protein RL4_HUMAN (P36578)) was 0.563 and the “Fold change (treated / control)” value (protein RL10A_HUMAN (P62906)) was 0.5923. For the same compound, the “Fold change (treated / control)” value (protein RL13_HUMAN (P26373)) was 0.6224, the “Fold change (treated / control)” value (protein RL15_HUMAN (P61313)) was 0.6202 and the “Fold change (treated / control)” value (protein RL19_HUMAN (P84098)) was 0.3072. The “Fold change (treated / control)” value (protein RL23A_HUMAN (P62750)) was 0.5699, the “Fold change (treated / control)” value (protein RL23_HUMAN (P62829)) was 0.6468 and the “Fold change (treated / control)” value (protein RL27A_HUMAN (P46776)) was 0.6191. For the same compound, the “Fold change (treated / control)” value (protein RL34_HUMAN (P49207)) was 0.2863, the “Fold change (treated / control)” value (protein RL36_HUMAN (Q9Y3U8)) was 0.6291 and the “Fold change (treated / control)” value (protein RM11_HUMAN (Q9Y3B7)) was 0.6501. For the same compound, the “Fold change (treated / control)” value (protein RM45_HUMAN (Q9BRJ2)) was 0.6189, the “Fold change (treated / control)” value (protein RM53_HUMAN (Q96EL3)) was 0.5657 and the “Fold change (treated / control)” value (protein RM54_HUMAN (Q6P161)) was 0.6079. For the same compound, the “Fold change (treated / control)” value (protein RPA34_HUMAN (O15446)) was 0.6508, the “Fold change (treated / control)” value (protein RPAB5_HUMAN (P62875)) was 0.5655 and the “Fold change (treated / control)” value (protein RS2_HUMAN (P15880)) was 0.6402. The “Fold change (treated / control)” value (protein RS6_HUMAN (P62753)) was 0.6108, the “Fold change (treated / control)” value (protein RS9_HUMAN (P46781)) was 0.6218 and the “Fold change (treated / control)” value (protein S27A3_HUMAN (Q5K4L6)) was 0.6711. For the same compound, the “Fold change (treated / control)” value (protein SERC1_HUMAN (Q9NRX5)) was 0.3307, the “Fold change (treated / control)” value (protein SIGIR_HUMAN (Q6IA17)) was 0.5907 and the “Fold change (treated / control)” value (protein SMCA5_HUMAN (O60264)) was 0.6602. The “Fold change (treated / control)” value (protein SMRC1_HUMAN (Q92922)) was 0.6541, the “Fold change (treated / control)” value (protein SPB1_HUMAN (Q8IY81)) was 0.6134 and the “Fold change (treated / control)” value (protein STRBP_HUMAN (Q96SI9)) was 0.6608. The “Fold change (treated / control)” value (protein SUOX_HUMAN (P51687)) was 0.6055, the “Fold change (treated / control)” value (protein TF3C1_HUMAN (Q12789)) was 0.6535 and the “Fold change (treated / control)” value (protein TF3C5_HUMAN (Q9Y5Q8)) was 0.6483. For the same compound, the “Fold change (treated / control)” value (protein TIM8B_HUMAN (Q9Y5J9)) was 0.3123, the “Fold change (treated / control)” value (protein UBL5_HUMAN (Q9BZL1)) was 0.5618 and the “Fold change (treated / control)” value (protein UCRI_HUMAN (P47985)) was 0.5774. The “Fold change (treated / control)” value (protein UTP18_HUMAN (Q9Y5J1)) was 0.63, the “Fold change (treated / control)” value (protein VIGLN_HUMAN (Q00341)) was 0.6343 and the “Fold change (treated / control)” value (protein XRN2_HUMAN (Q9H0D6)) was 0.664. For the same compound, the “Fold change (treated / control)” value (protein YBOX1_HUMAN (P67809)) was 0.6605, the “Fold change (treated / control)” value (protein ZN326_HUMAN (Q5BKZ1)) was 0.6081 and the “Fold change (treated / control)” value (protein ZN428_HUMAN (Q96B54)) was 0.5792. The “Fold change (treated / control)” value (protein ZN595_HUMAN (Q8IYB9)) was 0.6231.
